The subject of assay [1] is HT-29 cells (human colon carcinoma cell line). Put plainly: MTT anti-proliferation assay on HT-29 cells. The format is cell-based. To be noted: Homo sapiens, 120 h, 384 well plates, 5 days, read-out: IC50 HT29 384. The text has this: MTT (3-(4,5-dimethylthiazol-2-yl)-2,5-diphenyl tetrazolium bromide) is widely used for the quantitative determination of cytotoxic effects or in vitro chemosensitivity of tumor cells. The assay is based on the cleavage of the yellow tetrazolium salt (MTT) to purple formazan crystals by metabolic active cells. For details, see Rubinstein, L. V., et al., J. Natl. Cancer Inst. 82 (1990) 1113.
We proceeded as follows: HT-29 cells (human colon carcinoma cell line) were cultivated in RPMI 1640, 2.5% FCS, 2 mM glutamine, 100 u/ml penicillin, 100 ug/ml streptomycin. For the assay the cells were seeded in 384 well plates, 900 cells per well, in the same medium. At the next day, the compounds (dissolved 10 mM in DMSO) were added in various concentrations ranging from 30 uM to 1.5 nM. After 5 days, the MTT assay was done mainly according to the instructions of the manufacturer (Cell proliferation kit I, MTT, from Roche Molecular Biochemicals). In brief: MTT labeling reagent was added to a final concentration of 0.5 mg/ml, added and incubated for 4 hrs at 37° C., 5% CO2. During this incubation time purple formazan crystals are formed. After addition of the solubilization solution (20% SDS in 0.02 M HCl) the plates were incubated overnight at 37° C., 5% CO2. After careful mixing, the plates were measured in Victor 2 (scanning multiwell spectrophotometer, Wallac) at 550 nm.
A decrease in number of living cells results in a decrease in the total metabolic activity in the sample. The decrease directly correlates to the amount of purple color resulting from the solubilization of the purple formazan crystals. Determination of IC50 was done using XL-fit.

The target in a further assay is T1, recombinant HDAC-1 (Homo sapiens, UniProt Q13547).
T1 construct: made in house; host or cells: HEK 293 cells
Put plainly: HDAC biochemical quench assay. To be noted: recombinant HDAC-1 purified from HEK 293 cells, 1 uM peptide substrate, 90 min at room temperature. From the text:
The function of histone deacetylase (HDAC) is the deacetylation of lysines in e.g. histone H4. A peptide of 17 amino acids derived from histone H4 was labeled with TAMRA at the C-terminus and QSY-7 at the N-terminus and was used as a substrate (TAMRA-first17 aa of histone H4-QSY7). Following deacetylation by HDAC, the enzyme Lys C is able to cleave the peptide after lysine. […] Inhibition of HDAC by compounds results in low signals because Lys C could not cleave the substrate and the quench effect persists.
For dose response curves, 10 concentrations were diluted 1:3 starting at 30 uM. 10 ul compound dilution were put into each well of a 384 well plate. 10 ul HDAC were added (recombinant HDAC-1 purified from HEK 293 cells; enzyme activity has to be assessed for each preparation). 10 ul peptide substrate was added (1 uM final concentration, derived from 1 mM stock solution diluted 1:1000 in test buffer). After 90 min incubation at room temperature, the reaction was stopped by addition of 20 ul test buffer including 3 ug/ml Lys C and 0.075% SDS. After overnight incubation the fluorescence signal of TAMRA was measured (Victor 2 from Wallac, absorption 544 nm, emission 590 nm). The O.D. of DMSO-treated control wells is 100%, the % inhibition of compound treated wells is calculated in relation to 100%. Based on 10 concentrations a IC50 curve is generated by using XL.fit3.
Test buffer used: a mixture of 10 mM Hepes pH8, 10 mM NaCl, 10% Glycerol, 0.005% Triton X100, 0.1 mM EDTA, 0.1 mM TCEP. As plates were used 384 well plates (black, Greiner, 781077).

T1 sequence (Q13547 whole entry, species assumed): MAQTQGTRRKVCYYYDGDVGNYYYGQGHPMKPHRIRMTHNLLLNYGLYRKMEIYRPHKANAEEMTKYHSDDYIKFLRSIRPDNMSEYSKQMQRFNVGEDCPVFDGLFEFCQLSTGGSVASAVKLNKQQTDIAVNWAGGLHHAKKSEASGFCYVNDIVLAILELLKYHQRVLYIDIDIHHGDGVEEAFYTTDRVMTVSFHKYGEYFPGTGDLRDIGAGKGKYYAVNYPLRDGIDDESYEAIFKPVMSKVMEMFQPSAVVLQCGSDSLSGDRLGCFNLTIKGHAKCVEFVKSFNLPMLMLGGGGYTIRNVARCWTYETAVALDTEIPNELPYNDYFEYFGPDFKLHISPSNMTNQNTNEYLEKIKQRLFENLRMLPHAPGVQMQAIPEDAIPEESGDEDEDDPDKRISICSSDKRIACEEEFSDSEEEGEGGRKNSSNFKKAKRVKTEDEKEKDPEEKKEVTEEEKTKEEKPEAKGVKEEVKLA

A word on the IC50: it is the concentration that inhibits the measured activity by half. As for `O=C(NO)c1ccc(C(=O)N[C@H](Cc2ccccc2)c2ccccc2)s1` [Example 8f, (R)-thiophene-2,5-dicarboxylic acid 2-[(1,2-diphenyl-ethyl)-amide]5-hydroxyamide], the IC50 is 40 nM in assay [1] and 1.33 nM on recombinant HDAC-1.
Taken in the same sequence, the figures for `C[C@H](NC(=O)c1ccc(C(=O)NO)s1)c1cccs1` [Example 9, (S)-Thiophene-2,5-dicarboxylic Acid 2-hydroxyamide 5-[(1-thiophen-2-yl-ethyl)-amide]] were 520 nM and 3.82 nM.
Consider `C[C@H](NC(=O)c1ccc(C(=O)NO)s1)c1ccc(C(F)(F)F)cc1` [Example 10d, (S)-thiophene-2,5-dicarboxylic acid 2-hydroxyamide 5-{[1-(4-trifluoromethyl-phenyl)-ethyl]-amide}], for which the IC50 is 350 nM in assay [1] and 2.69 nM on recombinant HDAC-1.
Taken in the same sequence, the figures for `C[C@H](NC(=O)c1ccc(C(=O)NO)s1)c1ccc(C(C)(C)C)cc1` [Example 10e, (S)-thiophene-2,5-dicarboxylic acid 2-{[1-(4-tert-butyl-phenyl)-ethyl]-amide}5-hydroxyamide] were 580 nM and 1.39 nM.
As for `O=C(NO)c1ccc(C(=O)N[C@@H](Cc2ccccc2)c2ccccc2)s1` [Example 10f, (S)-thiophene-2,5-dicarboxylic acid 2-[(1,2-diphenyl-ethyl)-amide]5-hydroxyamide], the concentration for half-maximal inhibition (IC50) came out at 40 nM in assay [1] and 0.58 nM on recombinant HDAC-1.

Source of the values: patent US7098241B2, “Thiophene hydroxamic acid derivatives” (Hoffmann-La Roche Inc., priority 2002, dated 2006).
